The values that follow are results of earlier work, collected in patent US20040092519A1, “New treatment for hot flashes” (priority 2002, published 2004).

For data set [1] the following is noted: transdermal; some patients.
The conditions of data set [2]: low doses; men and women.

Take `Clc1cccc(Cl)c1N=C1NCCN1` [clonidine]: in data set [1], the side effects result was “drowsiness, fatigue, and symptoms of low blood pressure”.
As to `CC(=O)O[C@]1(C(C)=O)CC[C@H]2[C@@H]3C=C(C)C4=CC(=O)CC[C@]4(C)[C@H]3CC[C@@]21C` [megestrol acetate], the “frequency of hot flashes” value in data set [2] is given as “reduce the frequency of hot flashes”.
